# Measurements: PubChem BioAssay (NCI)
#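 Exposure lasted 48 hours, with cells grown in 96-well plates and compounds tested at five concentrations. The concentration for full growth arrest is given as TGI.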
# What was measured:
# Experiment in all cases: growth of human tumour cells (NCI), 48 h
# [1] = test system: RXF-631 renal
# [2] = test system: KM20L2 colon
# [3] = test system: DMS 114 small cell lung
# [4] = test system: SNB-78 CNS
# [5] = test system: M19-MEL melanoma
# [6] = test system: T-47D breast
# [7] = test system: MDA-N
# [8] = test system: PC-3 prostate
SMILES,TGI [1] [µM],TGI [2] [µM],TGI [3] [µM],TGI [4] [µM],TGI [5] [µM],TGI [6] [µM],TGI [7] [µM],TGI [8] [µM]
Cc1ccccc1C1CC(c2ccccc2)=NO1 (stereo unspecified),> 100,> 100,> 100,> 100,–,–,–,–
COC(=O)C(/C(=N\NC(N)=S)C(=O)Nc1ccccc1[N+](=O)[O-])c1cnc2ccccc2n1 (stereo unspecified),> 100,> 100,> 100,> 100,> 100,–,–,–
Cc1ccc2nc(NC(=O)/C(=N\NC(=S)NN)C3C(=O)NC(=S)NC3=O)sc2c1,> 100,> 100,–,> 100,–,–,–,–
c1ccc(N/N=C2\NN=C(c3ccccc3)CS2)cc1,35.8,22.8,–,34.2,–,–,–,–
O=C1C=CC2(C=C1)C[C@H](NC(=O)OCc1ccccc1)C(=O)O2,40.8,38.7,47.2,67.2,33.7,49.9,28.9,29.9
O=C1C2C3C=CC(C2C(=O)N1CN1CCSCC1)C1C2C(=O)N(CN4CCSCC4)C(=O)C2C31 (stereo unspecified),> 100,> 100,> 56.1,> 100,> 100,–,–,–
CCN(CC)CCNc1ccc2nc(C)n3c4ccc(O)cc4c(=O)c1c23,7.51,–,10.4,–,16.8,–,–,–
c1ccc2c(NCCCCCCNc3cccc4ccccc34)cccc2c1,> 100,> 100,> 100,> 100,> 100,–,–,–
C=C(CCCO)[C@@H]1CC[C@@](C)(O)[C@H]1C,> 100,> 100,> 100,> 100,> 100,–,–,–
CSCCC(C(=O)O)N(CC1(O)OCC(O)C(O)C1O)N=O (stereo unspecified),> 100,> 100,> 100,> 100,> 100,–,–,–
CCOC(=O)C(C(O)c1ccc([N+](=O)[O-])cc1)P(=O)(OCC)OCC (stereo unspecified),> 100,> 100,–,–,> 100,–,–,–
COc1c2c(cc3c1C(=O)Cc1ccc4c(c1CN(C)CC3)OCO4)OCO2,> 100,> 100,> 100,> 100,> 100,–,–,–
Cn1cnc([N+](=O)[O-])c1Sc1nccc(=O)[nH]1,> 100,–,> 100,> 100,> 100,–,–,–
C/C(=N\NC(=O)CC(=O)N(C(=O)c1ccc(Cl)cc1)c1ccc(C)cc1)c1ccccc1O,> 100,> 100,> 100,> 100,> 100,–,–,–
C=CCN(N=O)C(=O)NCCCCC(NC(C)=O)C(=O)NCc1ccccc1 (stereo unspecified),> 100,> 100,> 100,–,> 100,–,–,–
COc1cc(/C=C2/C(=O)N(C(=O)OCc3ccccc3)C(Cc3cc(OC)c(OC)c(C)c3OC)C(=O)N2Cc2ccccc2)c(OC)c(C)c1OC (stereo unspecified),> 100,> 100,> 100,–,> 100,–,–,–
COC(=O)C(=O)C(C(=O)C(=O)Nc1cc(C)ccc1C)c1nc2ccc(C(=O)c3ccccc3)cc2[nH]c1=O (stereo unspecified),> 100,> 100,> 100,> 100,> 100,–,–,–
COc1ccc(CCc2cc(OC)c(O)c(OC)c2)cc1,> 100,> 100,> 100,> 100,> 100,–,–,–
